Tested on: subjects with moderately to severely active RA who have an inadequate response to methotrexate (MTX)
Assay: Study 1 (add-on to MTX) - ACR responses (ACR20/50/70)
Type: in vivo, human
Excerpt: The terms “ACR20”, “ACR50” and “ACR70” as used herein are scores which indicate how much a patient's rheumatoid arthritis has improved according to criteria set out by the American College of Rheumatology (ACR). The ACR score represents a percentage. An ACR20 score means that a person's RA has improved by 20%, an ACR50 score means it has improved by 50%, and an ACR70 score means it has improved by 70%. Specifically, to qualify for an ACR20 score, a person with RA must have at least 20% fewer tender joints and at least 20% fewer swollen joints. In addition the patient must show a 20% improvement in at least three of the following five areas: the person's overall (global) assessment of his or her own RA, the physician's global assessment of the person's RA, the person's assessment of his or her own pain, the person's assessment of his or her own physical functioning, and the results of an erythrocyte sedimentation rate or C-reactive protein (CRP) blood test (both of which test for inflammation). ACR50 and ACR70 scores use the same criteria but require 50% and 70% improvement, respectively, (Felson et al., 1993). In the data presented herein the CRP blood test is used.
Double-blind, placebo-controlled add on study in subjects with moderately to severely active RA who have an inadequate response to methotrexate (MTX) (oral or parenteral).
595 subjects randomized to one of 6 dose regimens of Compound 1 (dosed as [Compound 1:HCl:3H2O]) (3 dose levels administered either once or twice daily) or placebo on top of each subject's stable dose of MTX.
Compound 1 (dosed as [Compound 1:HCl:3H2O]) is dosed for twelve weeks once daily (q.d.) (50 mg, 100 mg or 200 mg) or twice daily (b.i.d.) (25 mg, 50 mg or 100 mg); or placebo.
At Week 12, the subjects on placebo who have not achieved 20% improvement in swollen joint count (SJC66) and tender joint count (TJC68) are re-randomized automatically to receive Compound 1 (dosed as a [Compound 1:HCl:3H2O]) either at 100 mg q.d. or 50 mg b.i.d. doses in a blinded fashion; subjects on 50 mg q.d. who have not achieved 20% improvement in SJC66 and TJC68 will be assigned to 100 mg q.d. and subjects on 25 mg b.i.d. that have not achieved a 20% improvement in SJC66 and TJC68 will be assigned to 50 mg b.i.d. Subjects who switch treatment at week 12 are handled as if they discontinued at week 12 for the purpose of statistical analysis, whereas subjects in the other groups will maintain their randomized treatment until Week 24.
The American College of Rheumatology (ACR) composite score, which evaluates clinical improvement relative to an initial assessment, is a commonly accepted efficacy end point for clinical trials in patients with rheumatoid arthritis. The ACR score correspond to a percentage improvement in pre-set parameters, and therefore measures the evolution of the disease in a patient. For example, ACR20 denotes at least 20% improvement in tender and swollen joint counts and in three of the following end points: global assessment by the patient, global assessment by the doctor, C reactive protein (CRP), patient's pain Visual Analogue Scale and Health Assessment Questionnaire Score. The number of swollen joints, ESR and CRP correlate with radiographic progression of joint damage, whereas tender joint counts, as well as global assessments by doctors and patients, and patients' reports of pain, are sensitive to change in clinical outcomes. Physical function, as assessed by the Health Assessment Questionnaire Score, is a potent predictor of the risk of disability in rheumatoid arthritis (Felson and American College of Rheumatology Committee to Reevaluate Improvement Criteria, 2007; Felson et al., 1993).
In particular, the list of parameters used to assess ACR score can be found in the Table XCVI below and the results of the ACR responses at week 12 via either NRI or LOCF are shown in the tables below. The Hommel-corrected p-value for the pairwise comparisons of each group with placebo is shown. […]

[1] = 100 mg q.d., week 12, 12 weeks results
[2] = 100 mg q.d., week 12, 24 weeks results
[3] = 100 mg q.d., week 16, 24 weeks results
[4] = 100 mg q.d., week 20, 24 weeks results
[5] = 100 mg q.d., week 24, 24 weeks results
[6] = 100 mg q.d., at week 1, 12 weeks results
[7] = 100 mg q.d., at week 1, 24 weeks results
[8] = 100 mg q.d., week 8, 12 weeks results
[9] = 200 mg q.d., week 2, 12 weeks results
[10] = 200 mg q.d., week 2, 24 weeks results
[11] = 200 mg q.d., week 4, 12 weeks results
[12] = 200 mg q.d., week 4, 24 weeks results
[13] = 200 mg q.d., week 8, 24 weeks results
[14] = 200 mg q.d., week 12, 12 weeks results
[15] = 200 mg q.d., week 12, 24 weeks results
[16] = 200 mg q.d., week 16, 24 weeks results
[17] = 200 mg q.d., week 20, 24 weeks results
[18] = 200 mg q.d., week 24, 24 weeks results
[19] = 200 mg q.d., at week 1, 12 weeks results
[20] = 200 mg q.d., at week 1, 24 weeks results
[21] = 200 mg q.d., week 8, 12 weeks results

## O=C(Nc1nc2cccc(-c3ccc(CN4CCS(=O)(=O)CC4)cc3)n2n1)C1CC1 [Compound 1, cyclopropanecarboxylic acid {5-[4-(1,1-dioxo-thiomorpholin-4-ylmethyl)-phenyl]-[1,2,4]triazolo[1,5-a]pyridin-2-yl}-amide]
[1]
  ACR70 (LOCF): 22.4%
  ACR70 (NRI): 20.0%
[2]
  ACR20 (LOCF): 67.1%
  ACR20 (NRI): 62.4%
  ACR50 (LOCF): 41.2%
  ACR50 (NRI): 38.8%
  ACR70 (LOCF): 22.4%
  ACR70 (NRI): 20.0%
[3]
  ACR20 (LOCF): 69.4%
  ACR20 (NRI): 64.7%
  ACR50 (LOCF): 55.3%
  ACR70 (LOCF): 27.1%
[4]
  ACR20 (LOCF): 76.5%
  ACR20 (NRI): 69.4%
  ACR50 (LOCF): 50.6%
  ACR70 (LOCF): 32.9%
[5]
  ACR20 (LOCF): 72.9%
  ACR20 (NRI): 60.0%
  ACR50 (LOCF): 54.1%
  ACR70 (LOCF): 37.6%
[6]
  ACR20 (LOCF): 32.9%
  ACR20 (NRI): 34.1%
  ACR50 (LOCF): 5.9%
  ACR50 (NRI): 5.9%
  ACR70 (LOCF): 0.0%
  ACR70 (NRI): 0.0%
[7]
  ACR20 (LOCF): 34.1%
  ACR20 (NRI): 34.1%
  ACR50 (LOCF): 5.9%
  ACR50 (NRI): 5.9%
  ACR70 (LOCF): 0.0%
  ACR70 (NRI): 0.00%
[8]
  ACR20 (LOCF): 63.5%
  ACR20 (NRI): 63.5%
  ACR50 (LOCF): 35.3%
  ACR50 (NRI): 34.1%
  ACR70 (LOCF): 23.5%
  ACR70 (NRI): 22.4%
[9]
  ACR20 (LOCF): 48.8%
  ACR20 (NRI): 48.8%
  ACR50 (LOCF): 11.6%
  ACR50 (NRI): 11.6%
  ACR70 (LOCF): 5.8%
  ACR70 (NRI): 5.8%
[10]
  ACR20 (LOCF): 48.8%
  ACR20 (NRI): 48.8%
  ACR50 (LOCF): 11.6%
  ACR50 (NRI): 11.6%
  ACR70 (LOCF): 5.8%
  ACR70 (NRI): 5.8%
[11]
  ACR20 (LOCF): 55.8%
  ACR20 (NRI): 55.8%
  ACR50 (LOCF): 16.3%
  ACR50 (NRI): 17.4%
  ACR70 (LOCF): 4.7%
  ACR70 (NRI): 4.7%
[12]
  ACR20 (LOCF): 55.8%
  ACR20 (NRI): 55.8%
  ACR50 (LOCF): 17.4%
  ACR50 (NRI): 17.4%
  ACR70 (LOCF): 4.7%
  ACR70 (NRI): 4.7%
[13]
  ACR20 (LOCF): 69.8%
  ACR20 (NRI): 69.8%
  ACR50 (LOCF): 34.9%
  ACR50 (NRI): 34.9%
  ACR70 (LOCF): 18.6%
  ACR70 (NRI): 18.6%
[14]
  ACR20 (LOCF): 70.9%
  ACR20 (NRI): 68.6%
  ACR50 (LOCF): 44.2%
  ACR50 (NRI): 43.0%
  ACR70 (LOCF): 24.4%
  ACR70 (NRI): 24.4%
[15]
  ACR20 (LOCF): 70.9%
  ACR20 (NRI): 69.8%
  ACR50 (LOCF): 44.2%
  ACR50 (NRI): 43.0%
  ACR70 (LOCF): 24.4%
  ACR70 (NRI): 24.4%
[16]
  ACR20 (LOCF): 74.4%
  ACR20 (NRI): 73.3%
  ACR50 (LOCF): 50.0%
  ACR70 (LOCF): 26.7%
[17]
  ACR20 (LOCF): 76.7%
  ACR20 (NRI): 73.3%
  ACR50 (LOCF): 54.7%
  ACR70 (LOCF): 24.4%
[18]
  ACR20 (LOCF): 77.9%
  ACR20 (NRI): 73.3%
  ACR50 (LOCF): 54.7%
  ACR70 (LOCF): 31.4%
[19]
  ACR20 (LOCF): 25.6%
  ACR20 (NRI): 27.9%
  ACR50 (LOCF): 4.7%
  ACR50 (NRI): 4.7%
  ACR70 (LOCF): 1.2%
  ACR70 (NRI): 1.2%
[20]
  ACR20 (LOCF): 27.9%
  ACR20 (NRI): 27.9%
  ACR50 (LOCF): 4.7%
  ACR50 (NRI): 4.7%
  ACR70 (LOCF): 1.2%
  ACR70 (NRI): 1.2%
[21]
  ACR20 (LOCF): 68.6%
  ACR20 (NRI): 68.6%
  ACR50 (LOCF): 33.7%
  ACR50 (NRI): 33.7%
  ACR70 (LOCF): 18.6%
